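Briefly, cells in 96-well plates were exposed to five compound concentrations for 48 h, and endpoints were estimated by linear interpolation. The concentration for full growth arrest is given as TGI.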
What was measured:
Test in all cases: NCI anticancer screen, dose series, 48 h
SF-539 CNS = system: SF-539 CNS
UO-31 renal = system: UO-31 renal
DU-145 prostate = system: DU-145 prostate
PC-3 prostate = system: PC-3 prostate
SF-268 CNS = system: SF-268 CNS
HCT-15 colon = system: HCT-15 colon
NCI-H460 lung = system: NCI-H460 lung
A549 NSCLC = system: A549 NSCLC
MALME-3M melanoma = system: MALME-3M melanoma
BT-549 breast = system: BT-549 breast

Row | SMILES | TGI (SF-539 CNS) [µM] | TGI (UO-31 renal) [µM] | TGI (DU-145 prostate) [µM] | TGI (PC-3 prostate) [µM] | TGI (SF-268 CNS) [µM] | TGI (HCT-15 colon) [µM] | TGI (NCI-H460 lung) [µM] | TGI (A549 NSCLC) [µM] | TGI (MALME-3M melanoma) [µM] | TGI (BT-549 breast) [µM]
1 | CCOC(=O)C(Cc1ccc(OC(=O)OC(C)(C)C)cc1)NC(=O)OC(C)(C)C (configuration not stated) | > 100 | > 100 | 96 | > 100 | > 100 | > 100 | > 100 | > 100 | > 100 | > 100
2 | Clc1ccc(-c2cn3c(nc4ccccc43)c(/C=C/c3ccco3)n2)cc1 | > 100 | > 100 | > 100 |  | > 100 | > 100 | > 100 | > 100 | > 100 | > 100
3 | COc1ccccc1NC(=O)CC(=O)N1N=C(N2c3ccccc3Sc3ccccc32)CC1c1ccccc1 (configuration not stated) | > 100 | > 100 | > 100 | > 100 | > 100 | > 100 | > 100 | > 100 |  | > 100
4 | Cc1ccc(C(=O)Nc2ccc(CP(=O)(O)O)cc2CP(=O)(O)O)cc1NC(=O)Nc1cc(C(=O)Nc2ccc(CP(=O)(O)O)cc2CP(=O)(O)O)ccc1C | > 100 | > 100 | > 100 | > 100 | > 100 | > 100 | > 100 | > 100 | > 100 | > 100
5 | C[C@@H]1C(=O)C[C@H]2C(C)(C)CCC[C@]2(C)[C@@]1(O)CCc1ccoc1 | > 100 | > 100 | > 100 | > 100 | > 100 | > 100 | > 100 | > 100 | > 100 | > 100
6 | Cc1sc2c(c1C)/C(=N\O)c1cccn1-2 |  | > 100 | > 100 | > 100 | > 100 | > 100 | > 100 | > 100 | > 100 | > 100
7 | CCCCCCCCCCCCCCCCOP(=O)(O)OCC(N)C(=O)O (configuration not stated) | 39.8 | 30.8 | > 100 | 31.1 | 41.6 | 61.3 | 51.8 | 53.1 | > 100 | 
8 | O=c1ccn(C2OC(CO)C(O)C2F)c(=O)n1Cc1ccccc1 (configuration not stated) | > 100 | > 100 | > 100 | > 100 | > 100 | > 100 |  | > 100 | > 100 | 
9 | COc1cc2c3c(n(C)c(=O)c2cc1OC)-c1cc2c(cc1/C3=C\CCCI)OCO2 | > 95.3 | > 100 | > 100 | > 100 | > 100 | > 100 | > 100 | > 100 | > 100 | > 100
10 | O=C(/C=C/c1cccc(Oc2ccccc2)c1)NCc1ccc(C(=O)NCCc2ccccc2)cc1 | > 100 | > 100 | > 100 | > 100 | > 100 | > 100 | > 100 | > 100 | > 100 | > 100
11 | CC(O)(P(=O)(O)O)P(=O)(O)OCC(O)CN1CCOCC1 (configuration not stated) | > 100 | > 100 | > 100 | > 100 | > 100 | > 100 | > 100 | > 100 | > 100 | > 100
12 | O=c1[nH]cc(Cl)c(=O)[nH]1 | > 100 | > 100 | > 100 | > 100 | > 100 | > 100 | > 100 | > 100 | > 100 | > 100
13 | Clc1cccc(NN=Nc2ccc(-c3nc4ccccc4s3)cc2)c1 | > 100 | > 100 | > 100 | > 100 |  | > 100 | > 100 | > 100 | 88.2 | > 100
14 | Nc1nc(Cl)cc(NC2(CO)CCC2)n1 | > 100 | > 100 | > 100 | > 100 | > 100 | > 100 | > 100 | > 100 | > 100 | > 100
15 | CCOC(=O)c1nc2ccc(C(F)(F)F)cc2nc1Nc1ccc(Cl)c(Cl)c1 | > 100 | > 100 | > 100 | > 100 | > 100 | > 100 | > 100 | > 100 | > 100 | > 100
16 | N=c1c2c(=S)n(-c3ccccc3)c(=S)n(-c3ccccc3)c2nc(SCCN2CCCC2)n1-c1ccccc1 | 9.71 |  | 3.29 | 3.3 | 5.69 | 3.86 | 3.63 | 8.5 | 3.87 | 5.13
17 | COc1cc(OC)c2c3c(OC)cc(OC)c4c(=O)c(O)c(C[C@@H](C)O)c(c5c(C[C@@H](C)O)c(O)c(=O)c1c25)c43 | 93.5 | > 100 | > 100 |  | 70.4 | 44.4 | > 100 | > 100 |  | 46
18 | O=C(c1ccc(Cl)cc1)N(C(=S)N1CCN(c2ccccn2)CC1)C1CCCCC1 | > 100 | > 100 |  |  | > 100 | > 100 | > 100 | > 100 | > 100 | 
19 | O=C1C(Cl)=C(N(C(=O)c2ccccc2)C(=O)c2ccccc2)C(=O)c2ccccc21 | 19.6 | 15.7 | > 100 | > 100 | 21.7 | 9 | 28.5 | > 100 |  | 21.7
20 | O=C(/C=C(\S/C=C(/c1ccccc1)N1CCn2c(C(=O)c3ccccc3)c(C(=O)c3ccccc3)c(C(=O)c3ccccc3)c21)C(=O)c1ccccc1)c1ccccc1 | > 10 |  | > 10 | > 10 | > 10 | > 10 | > 10 | > 10 | > 10 | > 10
21 | NC1=NS(=O)(=O)Nc2nc(-c3ccccc3)[nH]c21 | > 100 | > 100 |  |  | > 100 | > 100 | > 100 | > 100 | > 100 | 
